# Reference: article PMC10743929, “Amphiphilic Sialic Acid Derivatives as Potential Dual-Specific Inhibitors of Influenza Hemagglutinin and Neuraminidase” (International Journal of Molecular Sciences, 2023)
# “Also recorded” adds a separate entry of the source. Where two headings read alike, the source gives them in different places. Marks after values point to notes of the source that are not given here.
# Key:
# H1N1 Hemagglutinin = H1N1 Hemagglutinin (Influenza A virus, UniProt P03452); assay: SPR affinity toward immobilized H1N1 hemagglutinin; type: binding, influenza type H1N1 (A/Puerto Rico/8/34); settings: for Kd: KD(app)
# Description: (§1) SPR experiments were conducted using a BIAcore S200 instrument (Cytiva, Marlborough, MA, USA) employing a CM5 chip with a carboxymethyldextran surface (Cytiva, USA). Hemagglutinins (ThermoFisher Scientific, Invitrogen, Waltham, MA, USA) from influenza type H3N2 (A/Aichi/2/1968) and H1N1 (A/Puerto Rico/8/34), as well as neuraminidase (Invitrogen, USA) from H1N1 (A/California/04/2009), were immobilized on the chip surface following the standard amine coupling procedure outlined in the manufacturer’s instructions. This immobilization process was performed at a flow rate of 10 μL/min using PBST as the running buffer. The chip surface was initially activated using an N-ethyl-N-(3-dimethylaminopropyl)carbodiimide/N-hydroxysuccinimide solution. Subsequently, 50 μg/mL solutions of individual proteins in 10 mM sodium acetate, pH 5, were injected into channels 2, 3, and 4, respectively. To block any unreacted groups, all channels were treated with 1 M ethanolamine, resulting in a final response of 4500 RU for HAs and 2700 RU for neuraminidase. Channel 1 was activated and blocked in the same manner, without the injection of any protein, serving as a blank.
# (§2) Tested compounds in a PBST working buffer (20 mM Na-phosphate, 150 mM NaCl, pH 7.4, 0.005% Tween 20, 5% DMSO) were injected into the chip at a flow rate of 30 μL/min at 25 °C. The injection duration was 3 min, followed by a 10 min buffer flow to facilitate spontaneous dissociation. Each compound was injected as a two-fold dilution series within a concentration range of 0.78–800 μM (2.44–2500 μM for sialic acid). After each compound concentration series, five buffer injections were performed to ensure complete dissociation. To determine the apparent KD toward the immobilized proteins, the steady-state responses of the blank-subtracted curves from each replicate were fitted using a single-site binding model.
# (§3) In experiments conducted in a DMSO-free buffer (20 mM Na-phosphate, 150 mM NaCl, pH 7.4, 0.005% Tween 20), each replicate was followed by a two-fold dilution series of DMSO, matching the DMSO concentration in the compound solutions. In this case, the steady-state response of the blank-subtracted curve was corrected by the corresponding blank-subtracted DMSO steady-state response. The final values from each replicate were fitted using a single-site binding model using Origin 7 (OriginLab Corporation, Northampton, MA, USA).
# (§4) For all experiments, the final KD(app) and Rmax values, along with their standard deviations, were obtained through statistical analysis based on three replicates.
# IAV (A/H3N2) = assay: CPE reduction assay, influenza A/H3N2 in MDCK cells; type: cell-based, influenza A virus A/H3N2 (A/Victoria/361/11 or A/HK/7/87); settings: Influenza A virus, H3N2, 72 h
# Description: (§5) The process of CPE reduction assay for the influenza virus was described previously. The virus strains were A/Virginia/ATCC3/2009, A/PR/8 (A/H1N1), A/Victoria/361/11, A/HK/7/87 (A/H3N2), and B/Ned/537/05 (IBV). On day 0, Madin-Darby canine kidney (MDCK) cells in 96-well plates were infected with influenza virus at a multiplicity of infection (MOI) of 0.0004 plaque forming units (PFU) per cell, and that was incubated at 35 °C for 3 days. After the third day, virus-induced CPE and compound cytotoxicity were scored by microscopy, and the data were confirmed by formazan-based MTS cell viability assay (CellTiter 96® AQueous One Solution Cell Proliferation Assay from Promega, Madison, WI, USA). […] Compound cytotoxicity was expressed as the concentration of the compound causing minimal changes in cell morphology (MCC) and 50% cytotoxic concentration (CC50) based on the MTS assay.
# IBV = assay: CPE reduction assay, influenza B in MDCK cells; type: cell-based, influenza B virus (B/Ned/537/05); settings: Influenza B virus, 72 h
# Description: as §5
# IAV (A/H1N1) = assay: CPE reduction assay, influenza A/H1N1 in MDCK cells; type: cell-based, influenza A virus A/H1N1 (A/Virginia/ATCC3/2009 or A/PR/8); settings: Influenza A virus, H1N1, 72 h
# Description: as §5
# H1N1 Neuraminidase = H1N1 Neuraminidase (Influenza A virus, UniProt C3W5S3); assay: SPR affinity toward immobilized H1N1 neuraminidase; type: binding, influenza H1N1 (A/California/04/2009); settings: PBST with 5% DMSO, 25 °C
# Description: as §1, §2, §4
# H3N2 Hemagglutinin = H3N2 Hemagglutinin (Influenza A virus, UniProt P03437); assay: SPR affinity toward immobilized H3N2 hemagglutinin; type: binding, influenza type H3N2 (A/Aichi/2/1968); settings: for Kd: KD(app)
# Description: as §1, §2, §3, §4
# [1] = test system: Madin-Darby canine kidney (MDCK) cells; settings: dog, 3 days
# influenza A strains = assay: Anti-influenza activity against influenza A strains (H1N1 and H3N2) in MDCK cells; type: cell-based, influenza A virus (H1N1 and H3N2 types); settings: for activity against influenza A strains (in words): MDCK cells, H1N1 and H3N2
# Description: as §5
# in vitro = settings: dog
# [2] = Dynamic light scattering of aggregates; settings: RSD of 3 measurements in brackets
# hemagglutinin = settings: cited from earlier work
# [3] = H1N1 hemagglutinin, absence of DMSO, DMSO-free running buffer
# [4] = MTS cell viability assay, day 3, read-out: Antiviral EC50, IAV (A/H3N2), MTS
# [5] = microscopic scoring of cytopathic effect, day 3, read-out: Antiviral EC50, IAV (A/H3N2), CPE
# [6] = MTS cell viability assay, day 3, read-out: Antiviral EC50, IBV, MTS
# [7] = microscopic scoring of cytopathic effect, day 3, read-out: Antiviral EC50, IBV, CPE
# [8] = MTS cell viability assay, day 3, read-out: Antiviral EC50, IAV (A/H1N1), MTS
# [9] = microscopic scoring of cytopathic effect, day 3, read-out: Antiviral EC50, IAV (A/H1N1), CPE
# [10] = H3N2 hemagglutinin, absence of DMSO, DMSO-free running buffer
# [11] = 0.1 mg/mL (diluted with water), 25 °C
# [12] = 1 mg/mL in water/DMSO 9:1, 25 °C
# Chain of H1N1 Hemagglutinin (P03452 18-565): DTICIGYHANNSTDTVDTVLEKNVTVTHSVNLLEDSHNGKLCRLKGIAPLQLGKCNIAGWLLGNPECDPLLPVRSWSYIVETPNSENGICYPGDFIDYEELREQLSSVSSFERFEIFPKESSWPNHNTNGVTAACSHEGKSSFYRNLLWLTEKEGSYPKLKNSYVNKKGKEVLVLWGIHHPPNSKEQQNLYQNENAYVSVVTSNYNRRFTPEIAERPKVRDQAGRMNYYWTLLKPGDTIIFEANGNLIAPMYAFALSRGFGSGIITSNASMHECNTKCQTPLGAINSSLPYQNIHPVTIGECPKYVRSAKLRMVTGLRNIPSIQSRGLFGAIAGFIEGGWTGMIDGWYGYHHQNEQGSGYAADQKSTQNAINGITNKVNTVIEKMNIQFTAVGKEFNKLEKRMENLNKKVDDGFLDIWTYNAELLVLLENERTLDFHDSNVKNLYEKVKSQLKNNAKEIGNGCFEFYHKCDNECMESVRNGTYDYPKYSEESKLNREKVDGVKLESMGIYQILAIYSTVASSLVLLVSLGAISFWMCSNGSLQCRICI
Structure (SMILES),EC50 (IAV (A/H3N2); [4]),EC50 (IAV (A/H3N2); [5]),EC50 (IBV; [6]),EC50 (IBV; [7]),EC50 (IAV (A/H1N1); [8]),EC50 (IAV (A/H1N1); [9]),Cytotoxicity MCC (minimum cytotoxic concentration) [1],activity against influenza A strains (in words) (influenza A strains),CC50 (in vitro),other results
CCCCCCCCOCC1OC(OCCOCCOCCOCCOCCCSC2(C(=O)O)CC(O)C(NC(C)=O)C(C(O)C(O)CO)O2)C=CC1OCCCCCCCC (stereo not drawn) [Compound 23a],> 100 µM,> 100 µM,> 100 µM,> 100 µM,> 100 µM,> 100 µM,40 ^d µM,no anti-influenza effect,54 µM,"Rmax, H1N1 hemagglutinin, absence of DMSO (H1N1 Hemagglutinin; DMSO-free running buffer): 197 ± 24 RU; Kd (H1N1 Hemagglutinin; H1N1 Hemagglutinin, PBST with 5% DMSO, 25 °C, steady-state single-site fit): 6220 ± 4040 µM; Kd (H1N1 Hemagglutinin; [3]): 106 ± 36 µM; Rmax, H1N1 Hemagglutinin (H1N1 Hemagglutinin; PBST with 5% DMSO, 25 °C): 505 ± 275 RU; Rmax, H1N1 Neuraminidase (H1N1 Neuraminidase): 74 ± 13 RU; Rmax, H3N2 hemagglutinin, absence of DMSO (H3N2 Hemagglutinin; DMSO-free running buffer): 200 ± 23 RU; Kd (H3N2 Hemagglutinin; H3N2 Hemagglutinin, PBST with 5% DMSO, 25 °C, steady-state single-site fit): 1220 ± 737 µM; Kd (H3N2 Hemagglutinin; [10]): 134 ± 48 µM; Rmax, H3N2 Hemagglutinin (H3N2 Hemagglutinin; PBST with 5% DMSO, 25 °C): 148 ± 43 RU"
"NC(=O)c1ncn([C@@H]2O[C@H](CO)[C@@H](O)[C@H]2O)n1 [Ribavirin, reference compound]",24 ± 4 µM,30 ± 6 µM,5.4 µM,10 ± 4 µM,25 ± 2 µM,24 ± 6 µM,,,> 250 µM,
CCCCCCCCCCOCC1OC(CCCSC2(C(=O)O)CC(O)C(NC(C)=O)C(C(O)C(O)CO)O2)C=CC1OCCCCCCCCCC (stereo not drawn) [Compound 18a],> 100 µM,> 100 µM,> 100 µM,> 100 µM,> 100 µM,> 100 µM,20 ^d µM,,10 µM,
CCCCOC1C(OC)OC(COCCOCCOCCOCCn2cc(CSC3(C(=O)O)CC(O)C(NC(C)=O)C(C(O)C(O)CO)O3)nn2)C(OCc2ccc(OC)cc2)C1OCCCC (stereo not drawn) [Compound 12c],> 100 µM,> 100 µM,> 100 µM,> 100 µM,> 100 µM,> 100 µM,100 ± 0 µM,,> 100 µM,"d (average diameter of particles, DLS) [2, 11]: 111 (14.2%) ^a nm; d (average diameter of particles, DLS) [2, 12]: 103 (28.3%) ^a nm"
CCCCCCOCC1OC(CCCSC2(C(=O)O)CC(O)C(NC(C)=O)C(C(O)C(O)CO)O2)C=CC1OCCCCCC (stereo not drawn) [Compound 18c],> 100 µM,> 100 µM,> 100 µM,> 100 µM,> 100 µM,> 100 µM,100 ^d µM,,> 100 µM,
CCCCCCCCOCC1OC(CCCSC2(C(=O)O)CC(O)C(NC(C)=O)C(C(O)C(O)CO)O2)C=CC1OCCCCCCCC (stereo not drawn) [Compound 18b],6.2 ± 3 µM,4.8 ± 1 µM,> 100 µM,> 100 µM,23 µM,25 µM,63 ± 19 µM,effective; also recorded: moderate effect,32 ± 8 µM,"Rmax, H1N1 hemagglutinin, absence of DMSO (H1N1 Hemagglutinin; DMSO-free running buffer): 783 ± 8 RU; Kd (H1N1 Hemagglutinin; [3]): 286 ± 19 µM; Rmax, H1N1 Neuraminidase (H1N1 Neuraminidase): 166 ± 53 RU; Rmax, H3N2 hemagglutinin, absence of DMSO (H3N2 Hemagglutinin; DMSO-free running buffer): 925 ± 23 RU; Kd (H3N2 Hemagglutinin; [10]): 357 ± 23 µM; ratio of CC50 to EC50 (selectivity) (influenza A strains; both determined by MTS assay, at best): ≤ 5 factor"
CCCCCCCCCCOC1C(OC)OC(COCCOCCOCCOCCn2cc(CSC3(C(=O)O)CC(O)C(NC(C)=O)C(C(O)C(O)CO)O3)nn2)C(OCc2ccc(OC)cc2)C1OCCCCCCCCCC (stereo not drawn) [Compound 12a],> 100 µM,> 100 µM,> 100 µM,> 100 µM,> 100 µM,> 100 µM,20 ^d µM,,64 µM,"d (average diameter of particles, DLS) [2, 11]: 170 (15.8%) ^a nm; d (average diameter of particles, DLS) [2, 12]: 126 (2.00%) ^a nm"
COC1(C(=O)O)CC(O)C(NC(C)=O)C(C(O)C(O)CO)O1 (stereo not drawn) [methyl β-glycoside],,,,,,,,,,binding to hemagglutinin (in words) (hemagglutinin): does not bind at all
CCCCCCOCC1OC(OCCOCCOCCOCCOCCCSC2(C(=O)O)CC(O)C(NC(C)=O)C(C(O)C(O)CO)O2)C=CC1OCCCCCC (stereo not drawn) [Compound 23b],> 100 µM,> 100 µM,> 100 µM,> 100 µM,> 100 µM,> 100 µM,>100 µM,ineffective,> 100 µM,
CO[C@]1(C(=O)O)C[C@H](O)[C@@H](NC(C)=O)[C@H]([C@H](O)[C@H](O)CO)O1 [Methyl α-glycoside of sialic acid],,,,,,,,,,binding to hemagglutinin (in words) (hemagglutinin): bind weakly
